From patent US11001561B2, “Pyrimidinone derivatives as SHP2 antagonists” (MERCK PATENT GMBH, priority 2019, dated 2021)
Like-named read-outs stand apart in the source and are kept apart here.

Tests used:
[1] = target: Full length SHP2 protein (Recombinant Human SHP-2) (Homo sapiens (Human), UniProt Q06124); assay: SHP2 biochemical assay (DiFMUP substrate, activating peptide IRSI_2pY)
Description: The inhibition of SHP2 by compounds of the invention was monitored using the surrogate substrate DiFMUP after protein activation by a peptide bearing two appropriately spaced phosphotyrosine. […] The generation of the DiFMU product by activated SHP2 was monitored through Fluorescence measurement with a PerkinElmer Envision reader. The inhibitor dose response curves were analyzed with Genedata Screener.

[2] = target: auto-activated mutant protein SHP2 E76K (Homo sapiens (Human), UniProt Q06124, E76K); assay: SHP2 active mutant E76K biochemical assay with and without activating peptide
Chain of auto-activated mutant protein SHP2 E76K (Q06124 whole entry E76K): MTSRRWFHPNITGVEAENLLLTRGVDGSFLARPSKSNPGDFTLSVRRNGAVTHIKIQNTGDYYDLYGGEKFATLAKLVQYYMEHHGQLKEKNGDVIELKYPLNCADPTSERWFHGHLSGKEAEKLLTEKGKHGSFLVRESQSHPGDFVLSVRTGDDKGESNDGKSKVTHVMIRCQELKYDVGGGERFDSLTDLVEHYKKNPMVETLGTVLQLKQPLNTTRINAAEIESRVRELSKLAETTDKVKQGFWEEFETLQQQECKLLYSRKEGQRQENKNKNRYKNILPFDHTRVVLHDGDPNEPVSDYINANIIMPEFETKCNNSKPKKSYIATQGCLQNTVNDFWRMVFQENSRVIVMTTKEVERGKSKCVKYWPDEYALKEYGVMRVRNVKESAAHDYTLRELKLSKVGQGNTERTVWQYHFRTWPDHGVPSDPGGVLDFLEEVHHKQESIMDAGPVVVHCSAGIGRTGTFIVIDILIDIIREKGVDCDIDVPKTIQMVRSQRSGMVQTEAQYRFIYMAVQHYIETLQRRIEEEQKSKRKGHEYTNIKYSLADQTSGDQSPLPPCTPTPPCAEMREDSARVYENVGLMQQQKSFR
Description: The inhibition of SHP2 by compounds of the invention was monitored using the surrogate substrate DiFMUP after protein activation by a peptide bearing two appropriately spaced phosphotyrosine. Full length SHP2 protein (Recombinant HumanSHP-2, E. coli derived Ser2Arg593, N-terminal 6His tag from R&D systems; 0.0.24 nM) was incubated with activating peptide, IRSI_2pY (New England Peptide, 140 nM) and DiFMUP (molecular probes, 80 uM) at RT in buffer (HEPES pH 7.2 60 mM, DDT 5 mM, KCl 75 mM, NaCl 75 mM, EDTA 1 mM, Tween 20 0.05%) in presence of compound (10 concentrations range, top concentration 50 μM) for 60 min. The generation of the DiFMU product by activated SHP2 was monitored through Fluorescence measurement with a PerkinElmer Envision reader. The inhibitor dose response curves were analyzed with Genedata Screener.

pERK1/2 in KYSE520 cells = assay: p-Erk cellular assay in KYSE520 (Mesoscale); format: cell-based; settings: read-out: pERK1/2 in Cell KYSE520 IC50
Description: p-Erk Cellular Assay in KYSE520: The effect of SHP2 inhibitors on pERK level was assessed using phospho-specific antibody using Mesoscale quantification platform. For measuring change in pERK levels using mesoscale, 30,000 cells of KYSE520 cells were plated in 96-well tissue culture treated plate in 175 μl volume of media. After an overnight incubation at 37° C., various SHP2 inhibitors were added in different concentration to each well maintaining duplicate wells across plates and incubated with compounds for 2 h at 37° C. followed by a wash with ice cold PBS buffer. The cells were then lysed in lysis buffer and processed and analyzed for p-ERK/ERK as per manufacturer's instructions (Mesoscale discovery, cat No. […]-3).

[3] = Pharmacokinetics in mouse (oral / intravenous); format: in vivo; settings: female CD1 mice; for clearance / Vd: mouse; for Vd: read-out: Vd ss
Description: Female CD1 mice (N=3) received a single oral (gavage) or a single intravenous (bolus) injection of compound. […] Consecutive blood samples were taken sub-lingually under isofluorane inhalation from animals after 0.083 (IV), 0.25, 0.5, 1, 2, 4, 6 and 24 h and were further processed to obtain plasma. Samples were protein precipitated and analysed by LC/MS/MS.

[4] = SHP-2 IC50 (nM) peptide, wild-type SHP-2, with activating peptide
[5] = activating peptide IRSI_2pY 140 nM, DiFMUP, 60 min, read-out: SHP-2 biochemical assay IC50
[6] = with activating peptide IRSI_2pY 140 nM, read-out: SHP-2 E76Z IC50 (nM) peptide
[7] = without activating peptide, read-out: SHP-2 E76Z IC50 (nM) No peptide
[8] = SHP-2 biochemical assay IC50 (μM), activating peptide IRSI_2pY 140 nM, DiFMUP, 60 min

Chain of Full length SHP2 protein (Recombinant Human SHP-2) (Q06124 2-593): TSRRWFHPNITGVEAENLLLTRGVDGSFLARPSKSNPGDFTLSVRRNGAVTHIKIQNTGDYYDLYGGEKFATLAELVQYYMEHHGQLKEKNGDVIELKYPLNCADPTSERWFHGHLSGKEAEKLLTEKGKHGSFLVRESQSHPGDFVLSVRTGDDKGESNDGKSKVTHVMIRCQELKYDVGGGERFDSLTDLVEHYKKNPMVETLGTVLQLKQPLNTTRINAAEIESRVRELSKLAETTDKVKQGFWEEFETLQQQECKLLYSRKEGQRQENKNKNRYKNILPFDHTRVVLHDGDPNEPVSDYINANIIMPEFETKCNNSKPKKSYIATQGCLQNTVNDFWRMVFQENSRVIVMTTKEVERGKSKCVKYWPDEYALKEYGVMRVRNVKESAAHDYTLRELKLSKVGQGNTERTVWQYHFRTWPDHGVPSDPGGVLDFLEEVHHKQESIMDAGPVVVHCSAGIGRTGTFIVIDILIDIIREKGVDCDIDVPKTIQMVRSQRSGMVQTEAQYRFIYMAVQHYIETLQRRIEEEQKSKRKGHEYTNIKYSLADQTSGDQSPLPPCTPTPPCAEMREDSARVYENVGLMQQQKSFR

Compound | IC50 [1, 5] | IC50 (pERK1/2 in KYSE520 cells; Homo sapiens, KYSE-520, 2 h) | other results
Cc1c(N2CCC3(CC2)Cc2ncccc2[C@H]3N)nc(C)n(-c2cccc(Cl)c2Cl)c1=O (single isomer, unassigned) [Compound 66a] | 73 nM | – | IC50 [1, 4]: 48 nM; IC50 [2, 6]: 200 nM; IC50 [2, 7]: 97 nM
Cc1nc(N2CCC3(CCC[C@H]3N)CC2)cc(=O)n1-c1cccc(Cl)c1Cl (single isomer, unassigned) [Compound 62b] | – | 526 nM | IC50 [1, 8]: 81 nM
Cc1c(N2CCC3(CCC[C@H]3N)CC2)nc(C)n(-c2cccc(Cl)c2Cl)c1=O [Compound 67b, (3M)-6-[(1R)-1-amino-8-azaspiro[4.5]decan-8-yl]-3-(2,3-dichlorophenyl)-2,5-dimethyl-3,4-dihydropyrimidin-4-one] | 41 nM | – | IC50 (pERK1/2 in KYSE520 cells; 2 h): 198 nM
CC1(N)CCN(c2cnc(-c3cccc(Cl)c3Cl)c(N)n2)CC1 [SHP-099, reference compound] | – | – | clearance ([3]; in vivo): 95 mL/min/kg; Vd ([3]; in vivo): 5 L/kg
Cc1c(N2CCC3(CC2)Oc2cnccc2[C@@H]3N)nc(C)n(-c2cccc(Cl)c2Cl)c1=O (single isomer, unassigned) [Compound 80b] | – | – | IC50 [1, 8]: > 10000 nM; IC50 (pERK1/2 in KYSE520 cells; 2 h): 16000 nM
Cc1nc(N2CCC3(CC2)CO[C@@H](C)[C@H]3N)nc(=O)n1-c1cccc(Cl)c1Cl (single isomer, unassigned) [Compound 37a] | 1100 nM | 11300 nM | –
Cc1c(N2CCC3(CCC[C@H]3N)CC2)nc(N)n(-c2cccc(Cl)c2Cl)c1=O (single isomer, unassigned) [Compound 78d] | – | 1330 nM | IC50 [1, 8]: 190 nM
Cc1nc(N2CCC3(CC2)CO[C@@H](C)[C@H]3N)cc(=O)n1-c1cccc(Cl)c1Cl (single isomer, unassigned) [Compound 3b] | – | – | Fz [3]: 85%; clearance ([3]; plasma, intravenous): 8 mL/min/kg; Vd ([3]; plasma, intravenous): 2.77 L/kg
Cc1c(N2CCC3(CC2)C[C@H](C)C[C@H]3N)nc(C)n(-c2cccc(Cl)c2Cl)c1=O (atropisomer, axis not shown) [Compound 111a, (3M)-6-[(1R,3S)-1-amino-3-methyl-8-azaspiro[4.5]decan-8-yl]-3-(2,3-dichlorophenyl)-2,5-dimethyl-3,4-dihydropyrimidin-4-one] | 93 nM | 720 nM | –
Cc1c(N2CCC3(CC2)Oc2cnccc2[C@H]3N)nc(C)n(-c2cccc(Cl)c2Cl)c1=O (single isomer, unassigned) [Compound 80a] | – | > 10000 nM | IC50 [1, 8]: 1400 nM
Cc1c(N2CCC3(CC2)Oc2ccccc2[C@H]3N)nc(C)n(-c2cccc(Cl)c2Cl)c1=O (single isomer, unassigned) [Compound 81b] | 1.4 nM | 6.6 nM | IC50 [1, 4]: 0.3 nM; Fz [3]: 48%; clearance ([3]; plasma, intravenous): 2.5 mL/min/kg; Vd ([3]; plasma, intravenous): 0.68 L/kg; IC50 ([2]; SHP-2 E76Z IC50 (nM) No peptide, without activating peptide): 0.5 nM; IC50 ([2]; SHP-2 E76Z IC50 (nM) peptide, with activating peptide IRSI_2pY 140 nM): 1.1 nM
Cc1nc(N2CCC3(CCC[C@H]3N)CC2)cc(=O)n1-c1cccc(Cl)c1Cl [Compound 27, 6-{(R)-1-amino-8-azaspiro[4.5]decan-8-yl}-3-(2,3-dichlorophenyl)-2-methyl-3,4-dihydropyrimidin-4-one] | 51 nM | 239 nM | –
Cc1c(N2CCC3(CC2)Cc2ccccc2[C@H]3N)nc(C)n(-c2cccc(C#N)c2Cl)c1=O [Compound 108, 3-4-[(1S)-1-amino-1,3-dihydrospiro[indene-2,4′-piperidin]-1′-yl]-2,5-dimethyl-6-oxo-1,6-dihydropyrimidin-1-yl-2-chlorobenzonitrile] | – | 32 nM | IC50 [1, 8]: 7 nM
[2H]C([2H])([2H])c1c(N2CCC3(CC2)Cc2ccccc2[C@H]3N)nc(C)n(-c2cccc(Cl)c2Cl)c1=O [Compound 106, 6-[(1S)-1-amino-1,3-dihydrospiro[indene-2,4′-piperidin]-1′-yl]-3-(2,3-dichlorophenyl)-5-(2H3)methyl-2-methyl-3,4-dihydropyrimidin-4-one] | – | 10 nM | IC50 [1, 4]: 1.7 nM; IC50 [1, 8]: 6 nM; IC50 [2, 6]: 6.4 nM; IC50 [2, 7]: 3.5 nM
Cc1c(N2CCC3(CC2)Oc2ncccc2[C@@H]3N)nc(C)n(-c2cccc(Cl)c2Cl)c1=O [Compound 79b, (3M)-6-[(3S)-3-amino-3H-spiro[furo[2,3-b]pyridine-2,4′-piperidin]-1′-yl]-3-(2,3-dichlorophenyl)-2,5-dimethylpyrimidin-4-one] | – | 102 nM | IC50 [1, 8]: 6 nM

The next lines start with results.

IC50 [1, 5] | IC50 (pERK1/2 in KYSE520 cells; Homo sapiens, KYSE-520, 2 h) | Compound | other results
78 nM | 1300 nM | Cc1c(N2CCC3(CC2)CO[C@@H](C)[C@H]3N)nc(C)n(-c2cccc(Cl)c2Br)c1=O [Compound 97, 6-((3S,4S)-4-Amino-3-methyl-2-oxa-8-aza-spiro[4.5]dec-8-yl)-3-(2-bromo-3-chloro-phenyl)-2,5-dimethyl-3H-pyrimidin-4-one] | –
2 nM | 7 nM | Cc1c(F)ccc(-n2c(C)nc(N3CCC4(CC3)Cc3ccccc3[C@H]4N)c(C)c2=O)c1Cl [Compound 110, 6-[(1S)-1-amino-1,3-dihydrospiro[indene-2,4′-piperidin]-1′-yl]-3-(2-chloro-4-fluoro-3-methylphenyl)-2,5-dimethyl-3,4-dihydropyrimidin-4-one] | –
28 nM | 955 nM | Cc1c(N2CCC3(CC2)CO[C@@H](C)[C@H]3N)nc(C)n(-c2ccc(F)c(Cl)c2Cl)c1=O [Compound 99, 6-((3S,4S)-4-Amino-3-methyl-2-oxa-8-aza-spiro[4.5]dec-8-yl)-3-(2,3-dichloro-4-fluoro-phenyl)-2,5-dimethyl-3H-pyrimidin-4-one] | –
67 nM | 2740 nM | Cc1c(F)ccc(-n2c(C)nc(N3CCC4(CC3)CO[C@@H](C)[C@H]4N)c(C)c2=O)c1Cl [Compound 103, 6-((3S,4S)-4-Amino-3-methyl-2-oxa-8-aza-spiro[4.5]dec-8-yl)-3-(2-chloro-4-fluoro-3-methyl-phenyl)-2,5-dimethyl-3H-pyrimidin-4-one] | –
510 nM | 2780 nM | Cc1nc(N2CCC(N)(CO)CC2)cc(=O)n1-c1cccc(Cl)c1Cl [Compound 29, 6-[4-amino-4-(hydroxymethyl)piperidin-1-yl]-3-(2,3-dichlorophenyl)-2-methyl-3,4-dihydropyrimidin-4-one] | –
6 nM | 10 nM | COc1c(F)ccc(-n2c(C)nc(N3CCC4(CC3)Cc3ccccc3[C@H]4N)c(C)c2=O)c1F [Compound 105, 6-[(1S)-1-amino-1,3-dihydrospiro[indene-2,4′-piperidin]-1′-yl]-3-(2,4-difluoro-3-methoxyphenyl)-2,5-dimethyl-3,4-dihydropyrimidin-4-one] | –
27 nM | 604 nM | Cc1c(N2CCC3(CC2)CO[C@@H](C)[C@H]3N)nc(C)n(-c2cccc(Br)c2Cl)c1=O [Compound 95, 6-((3S,4S)-4-Amino-3-methyl-2-oxa-8-aza-spiro[4.5]dec-8-yl)-3-(3-bromo-2-chloro-phenyl)-2,5-dimethyl-3H-pyrimidin-4-one] | –
0.8 nM | 5 nM | Cc1nc(N2CCC3(CC2)Cc2ccccc2[C@H]3N)cc(=O)n1-c1cccc(Cl)c1Cl (single isomer, unassigned) [Compound 119b] | –
2 nM | 4 nM | Cc1c(N2CCC3(CC2)Cc2ccccc2[C@H]3N)nc(C)n(-c2ccc(F)c(Cl)c2Cl)c1=O [Compound 109, 6-((1S)-1-amino-1,3-dihydrospiro[indene-2,4′-piperidin]-1′-yl]-3-(2,3-dichloro-4-fluorophenyl)-2,5-dimethyl-3,4-dihydropyrimidin-4-one] | –
200 nM | 2190 nM | Cc1c(N2CCC3(CC2)CO[C@@H](C)[C@H]3N)nc(N)n(-c2cccc(Cl)c2Cl)c1=O [Compound 116, 2-Amino-6-((3S,4S)-4-amino-3-methyl-2-oxa-8-aza-spiro[4.5]dec-8-yl)-3-(2,3-dichloro-phenyl)-5-methyl-3H-pyrimidin-4-one] | –
6 nM | 15 nM | Cc1c(N2CCC3(CC2)Cc2ccccc2[C@H]3N)nc(C)n(-c2ccc(F)c(F)c2Cl)c1=O [Compound 113, 6-[(1S)-1-amino-1,3-dihydrospiro[indene-2,4′-piperidin]-1′-yl)-3-(2-chloro-3,4-difluorophenyl)-2,5-dimethyl-3,4-dihydropyrimidin-4-one] | –
380 nM | 2290 nM | Cc1nc(N2CCC(N)(CCO)CC2)cc(=O)n1-c1cccc(Cl)c1Cl [Compound 26, 6-[4-amino-4-(2-hydroxyethyl)piperidin-1-yl]-3-(2,3-dichlorophenyl)-2-methyl-3,4-dihydropyrimidin-4-one] | –
560 nM | 600 nM | Cc1nc(N2CCC3(CCC3N)CC2)cc(=O)n1-c1cccc(Cl)c1Cl (centres unmarked) [Compound 35, 6-{1-amino-7-azaspiro[3.5]nonan-7-yl}-3-(2,3-dichlorophenyl)-2-methyl-3,4-dihydropyrimidin-4-one] | –
